We go through 20 molecules from US7109214B2, “Substituted cyclopentene compounds” (Grunenthal GmbH, priority 2004, dated 2006).

Counter-ions that a name gives are not always drawn. Like-named read-outs stand apart in the source and are kept apart here.

Data set [1] concerns the target T1, recombinant human CGRP1 receptor (CRLR and RAMP1) (Homo sapiens, UniProt O60894+Q16602).
T1 construct: purchased Euroscreen, Belgium ES420-M9; host or cells: CHO-K1 cell membranes
The data set is described as follows: Inhibition of binding of 3-[125I]-iodohistidyl10-α-CGRP to the human CGRP1 receptor (SPA). The settings on record: read-out: Inhibition in % of binding of 3-[125I]-iodohistidyl10 CGRP; at a concentration of 10 μM of the particular compound. On the procedure:
(A) Investigation of the Inhibition of Binding of [^125I]-α-CGRP to the Human CGRP1 Receptor
Various CGRP receptor subtypes are known which in each case consist of a complex of CRLR (Calcitonin Receptor-Like Receptor), RAMP (Receptor-Associated Membrane Protein) and RCP (Receptor Component Protein).
Investigation of the inhibition of the binding of 3-[^125I]-iodohistidyl^10-α-CGRP is carried out on a human CGRP1 receptor, which is composed of the recombinant human constituents (Calcitonin Receptor-Like Receptor) CRLR and (Receptor-Associated Membrane Protein) RAMP1 (item no. ES420-M9, Euroscreen, Belgium).
The radioligand used is 3-[^125I]-iodohistidyl^10 Calcitonin Gene-Related Peptide (Amersham pharmacia biotech, code IM 184, 2000 Ci/mmol).
The binding studies are performed as SPA (scintillation proximity assay) batches with WGA beads (wheat germ agglutinin, Amersham pharmacia biotech, code: RPNQ 0001). The incubation buffer used is 50 mm tris pH 7.4 with 120 mM NaCl, 5 mM KCl and 5 mM MgCl2. 0.25 μg of protein of membrane suspension of CHO-K1 cells, 250 μg of beads and 10 μg of albumin (BSA) and the above-stated radioligand in a concentration of […] together with the compound according to the invention to be investigated in a concentration of 10 μM are introduced into each well of a microtitre plate.
After an incubation period of 90 minutes, radioactivity is measured in a Trilux detector (Wallac, Finland).
The inhibition of binding of 3-[^125I]-iodohistidyl^10 Calcitonin Gene-Related Peptide to the recombinant human CGRP1 receptor was determined in accordance with the method described above.

Data set [2] has as its target T2, endogenous CGRP receptors in SK-N-MC cells (Homo sapiens, UniProt O60894+Q16602).
T2 construct: host or cells: SK-N-MC human neuroblastoma cells
As to the kind of experiment: Action on the formation of cAMP in the human neuroblastoma cell line SK-N-MC. Type of data set: cell-based. Conditions: at 1 nM CGRP, compounds used in 10 μM concentrations. The source says:
The corresponding description is hereby introduced as a reference and is deemed to be part of the disclosure.

Data set [3] addresses T3, CGRP1 receptors (Cavia porcellus, UniProt H0UV86+Q8R4C6).
T3 sequence (H0UV86 23-464): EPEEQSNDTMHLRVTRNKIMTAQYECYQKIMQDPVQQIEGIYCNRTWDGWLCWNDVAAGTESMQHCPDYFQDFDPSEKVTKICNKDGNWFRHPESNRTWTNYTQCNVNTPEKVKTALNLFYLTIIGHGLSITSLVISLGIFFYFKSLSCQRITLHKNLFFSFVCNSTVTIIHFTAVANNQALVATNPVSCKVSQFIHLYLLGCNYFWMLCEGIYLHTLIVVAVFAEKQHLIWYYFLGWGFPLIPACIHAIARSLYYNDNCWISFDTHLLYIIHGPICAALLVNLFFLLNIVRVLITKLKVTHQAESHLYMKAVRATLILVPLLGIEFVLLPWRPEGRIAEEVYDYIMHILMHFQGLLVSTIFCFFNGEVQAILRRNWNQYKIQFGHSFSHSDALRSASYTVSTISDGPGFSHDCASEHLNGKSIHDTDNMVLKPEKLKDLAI
T3 sequence (Q8R4C6 27-148): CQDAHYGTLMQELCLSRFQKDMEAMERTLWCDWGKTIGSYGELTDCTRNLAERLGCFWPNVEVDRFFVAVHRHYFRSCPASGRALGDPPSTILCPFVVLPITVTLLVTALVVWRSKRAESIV
As to the kind of experiment: CGRP receptor affinity on isolated, spontaneously beating guinea pig atrium. On the procedure: J. Physiol. Pharmacol. 75: 671–6,1997. The corresponding literature description is hereby introduced as a reference and is deemed to be part of the disclosure.
The exposure time for each concentration level is 2 minutes.
The validation and investigation of the substituted cyclopentene compounds according to the invention for their antagonistic action proceeded in accordance with the above-described method.

Data set [4] addresses T4, human calcitonin receptor-related receptor (CRLR) and human RAMP1 (Homo sapiens, UniProt O60894+Q16602).
T4 construct: purchased Euroscreen, Brussels, Belgium; host or cells: CHO-K1 cells (transfected), membranes
The data set is described as follows: GTPγS assay: CGRP-induced [35S]GTPγS incorporation into CHO-K1 membranes. In kind it is biochemical. The procedure:
The antagonistic action of the substituted cyclopentene compounds according to the invention was determined using this assay.
To this end, membranes from CHO-K1 cells (Euroscreen, Brussels, Belgium), which are transfected with the human calcitonin receptor-related receptor (CRLR, Genbank: U17473) and human receptor-associated modifying protein type 1 (RAMP1, Genbank AJ001014), are first of all rapidly thawed, diluted in 20 mM HEPES, 10 mM NaCl, 10 mM MgCl2, 1 mM EDTA pH 7.4 and resuspended by homogenisation. […] After 30 minutes' incubation at room temperature, 50 μl of 2 nM [35S]GTPγS (Amersham) are added and incubated for a further 30 minutes at room temperature and the assay-plate is centrifuged for 10 minutes at 3200 revolutions per minute. Bound activity was determined with a Wallac 1450 Microbeta Scintillation Counter (Wallac, Torku, Finland).
The inhibition of CGRP-induced incorporation of [^35S]GTPγS into membranes was determined in accordance with the above-described method.
On the technique in general: GTPγS is a poorly hydrolysed GTP analogue; its binding reports G protein activation.

Setting [5] is: read-out: IC50 value for CGRP-antagonistic action, isolated guinea pig atria stimulated by h-α-CGRP.

T4 sequence (Q16602 23-461): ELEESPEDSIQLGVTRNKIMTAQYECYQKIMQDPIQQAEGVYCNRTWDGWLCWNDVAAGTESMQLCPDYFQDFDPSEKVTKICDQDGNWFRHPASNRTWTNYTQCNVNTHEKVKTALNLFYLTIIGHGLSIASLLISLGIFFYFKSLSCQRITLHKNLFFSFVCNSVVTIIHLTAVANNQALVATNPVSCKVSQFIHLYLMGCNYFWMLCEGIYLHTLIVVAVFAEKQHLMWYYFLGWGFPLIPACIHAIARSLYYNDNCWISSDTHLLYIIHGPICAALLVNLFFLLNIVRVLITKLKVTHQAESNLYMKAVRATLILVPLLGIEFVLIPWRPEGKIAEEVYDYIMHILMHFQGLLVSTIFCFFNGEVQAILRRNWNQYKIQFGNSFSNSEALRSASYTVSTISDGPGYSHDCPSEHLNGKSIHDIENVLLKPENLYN
T4 sequence (O60894 27-148 partner): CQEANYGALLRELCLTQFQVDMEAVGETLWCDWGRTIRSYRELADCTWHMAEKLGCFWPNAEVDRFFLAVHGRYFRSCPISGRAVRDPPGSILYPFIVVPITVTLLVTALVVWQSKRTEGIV
T1 sequence (Q16602 23-461): as the sequence (Q16602 23-461) above
T1 sequence (O60894 27-148 partner): as the sequence (O60894 27-148 partner) above
T2 sequence (Q16602 23-461): as the sequence (Q16602 23-461) above
T2 sequence (O60894 27-148 partner): as the sequence (O60894 27-148 partner) above

Molecule `CN(C)CC1CC(c2ccc(S(C)(=O)=O)cc2)=C(c2ccc3ccccc3c2)C1=O.Cl` (stereo not drawn) returned a melting point of 163 to 165 °C.
Still for that read-out and setting: under `CC(C)c1cccc(C2=C(c3ccc(S(C)(=O)=O)cc3)CC(CN(C)C)C2=O)c1.Cl` (stereo not drawn) stands 131 to 133 °C.
`Cc1cccc(C2=C(c3ccc(S(C)(=O)=O)cc3)CC(CN(C)C)C2=O)c1.Cl` (stereo not drawn) showed a melting point of 148 to 150 °C.
The same measure, in the same setting: under `CN(C)CC1CC(c2ccc(S(C)(=O)=O)cc2)=C(c2cccc(C(F)(F)F)c2)C1=O.Cl` (stereo not drawn) stands 152 to 154 °C.
Regarding `Cc1ccc(C2=C(c3ccc(S(C)(=O)=O)cc3)CC(CN(C)C)C2=O)cc1C.Cl` (stereo not drawn), the melting point fell in the range of 139 to 142 °C.
On the same count and under the same terms, for `CN(C)CC1CC(c2ccc(S(C)(=O)=O)cc2)=C(c2cccc(Cl)c2)C1=O.Cl` (stereo not drawn) the value was 156 to 158 °C.
On to `CN(C)CC1CC(c2ccc(S(C)(=O)=O)cc2)=C(c2cc(F)cc(F)c2)C1=O.Cl` (stereo not drawn) [Example 1, 2-(3,5-Difluorophenyl)-5-dimethylaminomethyl-3-(4-methanesulfonylphenyl)-cyclopent-2-enone, hydrochloride], for which the inhibition at 10 µM in data set [1] was 40%. Moreover, the “Inhibition of cAMP formation” value in data set [2] stood at 71%. Also, the IC50 in data set [3] (setting [5]) is 13 µM. For the same molecule, the inhibition at 12.5 µM in data set [4] worked out at 65.1%.
As to `CN(C)CC1CC(c2ccc(S(C)(=O)=O)cc2)=C(c2cc(Cl)cc(Cl)c2)C1=O.Cl` (stereo not drawn), the melting point lay in the range of 160 to 163 °C.
Same read-out and setting: for `Cc1ccc(C2=C(c3ccc(S(C)(=O)=O)cc3)CC(CN(C)C)C2=O)cc1.Cl` (stereo not drawn) the value was 127 to 129 °C.
As to `CN(C)CC1CC(c2ccc(S(C)(=O)=O)cc2)=C(c2ccc(C(C)(C)C)cc2)C1O` (stereo not drawn) [Example 21, 2-(4-tert-Butylphenyl)-5-dimethylaminomethyl-3-(4-methanesulfonylphenyl)-cyclopent-2-enol, hydrochloride], the inhibition at 10 µM in data set [1] amounted to 26%.
`CN(C)CC1CC(c2ccc(S(C)(=O)=O)cc2)=C(c2cccc(O)c2)C1=O.Cl` (stereo not drawn) [Example 3, 5-Dimethylaminomethyl-2-(3-hydroxyphenyl)-3-(4-methanesulfonylphenyl)-cyclopent-2-enone, hydrochloride]: the melting point is 162 to 164 °C. Moreover, in data set [1], the inhibition at 10 µM came to 66%. For the same molecule, the “Inhibition of cAMP formation” value in data set [2] stood at 86%. Moreover, the half-inhibitory concentration (IC50) in data set [3] (setting [5]) came out at 77 µM. In data set [4], the inhibition at 12.5 µM was 65.1%.
`CN(C)CC1CC(c2ccc(S(C)(=O)=O)cc2)=C(c2ccc(S(C)(=O)=O)cc2)C1=O.Cl` (stereo not drawn) came in with a melting point of 157 to 159 °C.
Turning to “h-α-CGRP(8-37): human α-CGRP(8-37), CGRP1-antagonistic fragment used to validate the guinea pig atrium model [reference compound]”, the “Reduction in the increase in the frequency of beating of the atria stimulated by h-α-CGRP (in words)” value in data set [3] (concentrations of 30, 100 and 300 nM) was “concentration-dependent reduction”. Besides, the half-maximal inhibitory concentration (IC50) in data set [3] (validation experiment, isolated guinea pig atria, read-out: IC50 (semimaximal action), reduction of h-α-CGRP-stimulated increase in frequency of beating) is 0.019 µM.
Turning to `CN(C)CC1CC(c2ccc(S(C)(=O)=O)cc2)=C(c2ccc3c(c2)OCO3)C1=O.Cl` (stereo not drawn), the melting point lay in the range of 149 to 152 °C.
As for `CN(C)CC1CC(c2ccc(S(C)(=O)=O)cc2)=C(c2cccc(F)c2)C1=O.Cl` (stereo not drawn) [Example 5, 5-Dimethylaminomethyl-2-(3-fluorophenyl)-3-(4-methanesulfonylphenyl)-cyclopent-2-enone, hydrochloride], the melting point lay in the range of 154 to 158 °C. For the same molecule, in data set [1], the inhibition at 10 µM came to 58%. Further, in data set [2], the “Inhibition of cAMP formation” value was determined as 82%. Moreover, the half-inhibitory concentration (IC50) in data set [3] (setting [5]) came out at 25 µM. Further, the inhibition at 12.5 µM in data set [4] turned out to be 62.4%.
Regarding `CN(C)CC1CC(c2ccc(S(C)(=O)=O)cc2)=C(c2ccc(O)cc2)C1=O.Cl` (stereo not drawn), the melting point lay in the range of 98 to 100 °C.
In the case of `Cc1cc(C2=C(c3ccc(S(C)(=O)=O)cc3)CC(CN(C)C)C2=O)ccc1F.Cl` (stereo not drawn), the melting point is 95 to 98 °C (dec.).
`CCOc1cccc(C2=C(c3ccc(S(C)(=O)=O)cc3)CC(CN(C)C)C2=O)c1.Cl` (stereo not drawn) came in with a melting point of 149 to 151 °C.
Same read-out and setting: for `CN(C)CC1CC(c2ccc(S(C)(=O)=O)cc2)=C(c2ccc(C(C)(C)C)cc2)C1=O.Cl` (stereo not drawn) the value was 182 to 184 °C.
Take `COc1cccc(C2=C(c3ccc(S(C)(=O)=O)cc3)CC(CN(C)C)C2=O)c1.Cl` (stereo not drawn) [Example 13, 5-Dimethylaminomethyl-3-(4-methanesulfonylphenyl)-2-(3-methoxyphenyl)-cyclopent-2-enone, hydrochloride]: the melting point lay within 154 to 157 °C. Also, in data set [1], the inhibition at 10 µM was found to be 60%. In addition, in data set [2], the “Inhibition of cAMP formation” value was found to be 88%. For the same molecule, in data set [3] (setting [5]), the IC50 worked out at 32 µM. Further, in data set [4], the inhibition at 12.5 µM came out at 63.9%.

A word on the melting point: it is the temperature, or range, at which the solid turns liquid. A word on the inhibition: it is the change of the read-out against control, counted positive when it falls. One may read the IC50 as the concentration that inhibits the measured activity by half.
